Laboratory results: PubChem BioAssay (NCI)
Values joined by “and” are separate entries in the source; they are usually repeats but may differ in a detail not shown here. Identical values can stand only once.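 Test compounds were applied to cells in 96-well plates for 48 hours at 5 doses. GI50 = concentration required for 50% inhibition of growth. TGI is the concentration that stops growth completely.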

Assays:
Assay in all cases: NCI tumour cell line growth inhibition, 48 h
HT29 colon = test system: HT29 colon
MOLT-4 leukemia = test system: MOLT-4 leukemia
RPMI-8226 leukemia = test system: RPMI-8226 leukemia
RXF 393 renal = test system: RXF 393 renal
SNB-19 CNS = test system: SNB-19 CNS
SR leukemia = test system: SR leukemia
T-47D breast = test system: T-47D breast
M14 melanoma = test system: M14 melanoma

| SMILES | TGI (HT29 colon) | TGI (MOLT-4 leukemia) | TGI (RPMI-8226 leukemia) [µM] | TGI (RXF 393 renal) [µM] | TGI (SNB-19 CNS) [µM] | TGI (SR leukemia) | TGI (T-47D breast) [µM] | GI50 (HT29 colon) [µM] | GI50 (M14 melanoma) [µM] | TGI (M14 melanoma) | GI50 (MOLT-4 leukemia) | GI50 (RPMI-8226 leukemia) [µM] | GI50 (RXF 393 renal) [µM] | GI50 (SNB-19 CNS) [µM] | GI50 (T-47D breast) [µM] | GI50 (SR leukemia) [µM] |
| --- | --- | --- | --- | --- | --- | --- | --- | --- | --- | --- | --- | --- | --- | --- | --- | --- |
| CCOc1c(Br)cc(Br)cc1C=C(C#N)C#N | > 10 µM | > 10 µM | > 10 | > 10 | > 10 | > 10 µM | > 10 |  |  |  |  |  |  |  |  |  |
| O=C1c2ccccc2-c2nc3ccncc3n21 | > 100 µM | > 100 µM | > 100 | > 100 | > 100 | > 100 µM |  |  |  |  |  |  |  |  |  |  |
| COc1cc2c(/C=C3\C(=O)Nc4ccccc43)c[nH]c2cc1C | > 100 µM | 2.52 µM | 16.2 | 0.71 | 32.3 |  |  | 0.152 | < 0.0178 | 0.843 µM | 0.142 µM | 0.0393 | < 0.0231 | 0.112 |  |  |
| Cn1c(COC(=O)NCCn2ccnc2)nc2c(N3CCOCC3)nc(-c3ccccc3)nc21 | 1.47 µM | 2.41 µM | 1.05 | 1.8 | 2.69 |  | 4.17 | 0.372 | 0.561 | 1.92 µM | 0.441 µM | 0.222 | 0.488 | 1.38 | 1.43 |  |
| O=c1c(-c2ccc3c(c2)OCO3)coc2c3c(ccc12)OCO3 |  | > 100 µM | > 100 |  | 44.9 | > 100 µM | > 100 |  |  | > 100 µM |  |  |  |  |  |  |
| CCOC(=O)Nc1ccc2nc(-c3cscn3)[nH]c2c1 | 97.5 µM | > 100 µM | > 100 | 13.6 | > 100 |  | > 100 | 2.6 | 2.86 | > 100 µM | 5.31 µM | 4.6 | 2.41 | 5.73 | 5.32 |  |
| O=C1c2cccc3cccc(c23)C(=O)N1CCCCCN1CCN(CCN=c2cc3n(-c4ccc(Cl)cc4)c4ccccc4nc-3cc2Nc2ccc(Cl)cc2)CC1 | > 50 µM |  | 16.9 | > 50 | > 50 | 25.4 µM | > 50 | 9.13 | 7.53 | 16.5 µM |  | 5.22 | 11.2 | 23 | 32.8 | 7.54 |
| Cn1c(COC(=O)NCCc2ccccn2)nc2c(N3CCOCC3)nc(Cl)nc21 | 3.17 µM | 8.09 µM |  | 2.45 | 16.1 |  | 3.67 | 1.17 | 1.53 | 3.34 µM | 2.41 µM |  | 1.06 | 3.97 | 1.65 |  |
| CCC[CH2][Sn-]([CH2]CCC)([CH2]CCC)[O]C(=O)C(C)C | 0.208 µM | 0.348 µM | 0.366 | 0.237 | 0.351 |  |  | 0.0573 | 0.109 | 0.23 µM | 0.102 µM | 0.109 | 0.107 | 0.186 |  |  |
| COc1cc(N2C(=O)[C@H](Cl)C2c2ccc(SC)cc2)cc(OC)c1OC (stereo partly specified) | > 100 µM | > 100 µM | 10.5 | > 100 | > 100 | > 100 µM | > 100 | 0.0438 |  |  | 0.284 µM | 0.348 | 0.0385 | 0.0965 | 41.3 | 0.0473 |
| Clc1ccccc1C(Nc1cnccn1)Nc1cnccn1 | > 100 µM | > 100 µM | > 100 | > 100 | > 100 |  | > 100 |  |  | > 100 µM |  |  |  |  |  |  |
| OCC(O)C(O)C(O)C(/C=N\Nc1ncnc2c(Br)cc(Br)cc12)=N/Nc1ncnc2c(Br)cc(Br)cc12 (stereo unspecified) | 42 µM and > 100 µM | 34.3 µM and > 100 µM | > 100 |  |  | 17.3 µM and > 100 µM |  |  |  | 28.3 µM and 44.2 µM | 4.91 µM and 2.37 µM | 19.6 |  |  |  |  |
| COc1cc2c(cc1C)NC(=O)/C2=C/c1ccnc2ccccc12 |  | > 50 µM | > 50 |  | 36.3 | > 50 µM | > 50 |  | > 50 | > 50 µM | > 50 µM | 19.7 |  | 6.88 | 28.7 | 8.47 |
| COc1ccc(-n2cc(-c3ccc(OC)c(OC)c3)[nH]c2=O)cc1 | > 100 µM | > 100 µM | > 100 |  | > 100 | > 100 µM | > 100 | > 100 | > 100 | > 100 µM | > 100 µM | > 100 |  | > 100 | > 100 | > 100 |
| COc1cc2c(cc1OCCNC(=O)/C=C1\C[C@H]3C=Nc4cc(OCc5ccccc5)c(OC)cc4C(=O)N3C1)N=C[C@@H]1CCCN1C2=O | > 100 µM |  | 2.74 | 4.98 | > 100 | 4.56 µM | 55.9 | 20.3 | 10.4 | 28.8 µM |  | 1.18 | 1.98 | 8.62 | 2.77 | 1.46 |
| COc1c2ccoc2nc2c(OC)c(OCC(O)C(C)(C)O)ccc12 (stereo unspecified) | > 100 µM | > 100 µM | > 100 |  | > 100 |  | > 100 |  |  | > 100 µM |  |  |  |  |  |  |
| CC1=NN(c2cccc(Cl)c2)C(=O)/C1=C\c1cn(CC(O)CN2CCCCC2)c2ccccc12 (stereo unspecified) | 4.57 µM | 28.8 µM | 8.73 | 17.5 | 53.7 |  | 36.2 | 2.02 | 1.75 | 3.29 µM | 4.76 µM | 2.91 | 4.97 | 16.8 | 15.8 |  |
| CSc1nc(Nc2cccc(NC(=O)CCl)c2)c(C#N)c(-c2cccc([N+](=O)[O-])c2)n1 | 5.53 µM | 6.37 µM | 5.6 | 3.22 | 4.78 | > 100 µM |  | 2.36 | 2.01 | 6.08 µM | 1.32 µM | 2.1 | 1.54 | 2.06 |  | 0.387 |
| O=c1c(Cc2ccc3c(c2)OCO3)nnc2sc(-c3cc(F)c(Cl)cc3Cl)nn12 | > 100 µM | > 100 µM | > 100 | > 100 | > 100 |  |  | 35.2 | > 100 | > 100 µM | 36 µM | 30.6 | 42.7 | 34.3 |  |  |
